In ChEMBL document CHEMBL2040735, “Synthesis, benzodiazepine receptor binding and molecular modelling of isochromeno[4,3-c]pyrazol-5(1H)-one derivatives” (Eur J Med Chem, 2012):

Organism: Bos taurus
Assay: Displacement of [3H]flunitrazepam from benzodiazepine receptor in bovine brain membrane at 10 uM by liquid scintillation counting
Format: cell membranes
Settings: not given

| Compound | inhibition [%] |
| --- | --- |
| Cc1ccc(-n2nc(C)c3oc(=O)c4ccccc4c32)cc1 | 13 |
| Cc1nn(-c2ccccc2)c2c1oc(=O)c1cc(Cl)ccc12 | 0 |
| O=c1oc2ccccc2c2c1c(-c1ccccc1)nn2-c1ccccc1 | 10 |
| Cc1nn(-c2ccccc2)c2c1c(=O)oc1ccccc12 | 76 |
| Cc1ccc2c(c1)c(=O)oc1c(C)nn(-c3ccccc3)c12 | 6 |
| Cc1nn(-c2ccccc2)c2c1oc(=O)c1ccccc12 | 20 |
| O=c1oc2c(-c3ccccc3)nn(-c3ccccc3)c2c2ccccc12 | 5 |
| Cc1cccc(-n2nc(C)c3oc(=O)c4ccccc4c32)c1 | 40 |
| Cc1nn(-c2ccccc2)c2c1oc(=O)c1ccc(Cl)cc12 | 35 |
| O=c1oc2cnn(-c3ccccc3)c2c2ccccc12 | 54 |
| Cc1nn(-c2cccc(Cl)c2)c2c1oc(=O)c1ccccc12 | 28 |
| Cc1ccc(-n2nc(C)c3c(=O)oc4ccccc4c32)cc1 | 66 |
| Cc1cccc(-n2nc(C)c3c(=O)oc4ccccc4c32)c1 | 78 |
| Cc1nn(-c2cccc(Cl)c2)c2c1c(=O)oc1ccccc12 | 86 |

Organism: Bos taurus
Settings: Brain, Membrane, 1 uM
Description: Displacement of [3H]flunitrazepam from benzodiazepine receptor in bovine brain membrane at 1 uM by liquid scintillation counting

| Compound | inhibition [%] |
| --- | --- |
| CN1C(=O)CN=C(c2ccccc2)c2cc(Cl)ccc21 | 98 |
